Results: ChEMBL document CHEMBL2396517, “Design, synthesis and biological evaluation of novel aminothiazoles as antiviral compounds acting against human rhinovirus” (Bioorg Med Chem Lett, 2013)

Key:
[1] = Permeability across apical to basolateral side in human Caco2 cells; assay type: ADME, cell-based; settings: Caco-2, read-out: permeability
physchem = settings: buffer, pH 7.4
[2] = Half life in rat at 5 mg/kg, po and 2 mg/kg, iv; assay type: ADME, organism-based; settings: in vivo
[3] = Total clearance in rat at 5 mg/kg, po and 2 mg/kg, iv; assay type: ADME, organism-based; settings: in vivo
[4] = (§1) Oral bioavailability in rat at 5 mg/kg; assay type: ADME, organism-based; settings: in vivo
[5] = AUC in rat at 5 mg/kg, po and 2 mg/kg, iv; assay type: ADME, organism-based; settings: plasma
[6] = Cmax in rat at 5 mg/kg, po and 2 mg/kg, iv; assay type: ADME, organism-based; settings: in vivo
Rattus norvegicus = test: as §1; assay type: ADME, organism-based; settings: in vivo
[7] = Cmax in CD1 mouse at 250 mg/kg; assay type: ADME, organism-based; set-up: dose 250 mg/kg; settings: in vivo
[8] = Cmax in CD1 mouse at 5 mg/kg; assay type: ADME, organism-based; set-up: dose 5 mg/kg; settings: in vivo
[9] = Total clearance in CD1 mouse at 2 mg/kg, iv; assay type: ADME, organism-based; set-up: dose 2 mg/kg, route intravenous; settings: in vivo
[10] = AUC in CD1 mouse at 5 mg/kg; assay type: ADME, organism-based; set-up: dose 5 mg/kg; settings: plasma
[11] = AUC in CD1 mouse at 50 mg/kg; assay type: ADME, organism-based; set-up: dose 50 mg/kg; settings: plasma
[12] = AUC in CD1 mouse at 250 mg/kg; assay type: ADME, organism-based; set-up: dose 250 mg/kg; settings: plasma
[13] = Cmax in CD1 mouse at 50 mg/kg; assay type: ADME, organism-based; set-up: dose 50 mg/kg; settings: in vivo

Nc1ccc(-c2cnc(NC(=O)CN(Cc3ccccc3)C(=O)c3ccncc3)s2)cc1
Papp A→B [1]: 11.3 ×10⁻⁶ cm/s | logD (physchem): 2.9

Nc1ccc(-c2cnc(NC(=O)CN(Cc3ccccc3)C(=O)c3ccncc3)s2)cn1
Papp A→B [1]: 2.3 ×10⁻⁶ cm/s | logD (physchem): 2.6

Cc1nc(NC(=O)CN(Cc2ccccc2)C(=O)c2ccncc2)sc1-c1ccc(N)nc1
Papp A→B [1]: 2.1 ×10⁻⁶ cm/s | logD (physchem): 2.8

Cc1nc(NC(=O)CN2C(=O)OC[C@H]2C(C)C)sc1-c1ccc(N)cc1
Papp A→B [1]: 19 ×10⁻⁶ cm/s | logD (physchem): 2.5

CC(=O)N1[C@@H](c2ccccc2)CC[C@H]1C(=O)Nc1ncc(-c2ccc(N)cc2)s1
Papp A→B [1]: 21 ×10⁻⁶ cm/s | logD (physchem): 3.2

Cc1ccc(C(=O)N(CC(=O)Nc2ncc(-c3ccc(N)cc3)s2)Cc2ccccc2)cn1
Papp A→B [1]: 17 ×10⁻⁶ cm/s

CO[C@H]1CC[C@@H](C(=O)Nc2nc(C)c(-c3ccc(N)nc3)s2)CC1
half-life [2]: 0.38 h | clearance [3]: 70 mL/min/kg | bioavailability [4]: 77% | AUC [5]: 2.65 µM·h | Cmax [6]: 1.5 µM | Papp A→B [1]: 18 ×10⁻⁶ cm/s | logD (physchem): 2.8

Cc1nc(NC(=O)[C@H]2CC[C@@H](C(F)(F)F)CC2)sc1-c1ccc(N)nc1
Papp A→B [1]: 22 ×10⁻⁶ cm/s | logD (physchem): 3.8

Cc1nc(NC(=O)C2(C)CCCCC2)sc1-c1ccc(N)nc1
Papp A→B [1]: 20 ×10⁻⁶ cm/s | logD (physchem): 3.8

Cc1nc(NC(=O)C(C)CC(F)(F)F)sc1-c1ccc(N)nc1 (stereo not given)
half-life [2]: 1.7 h | clearance [3]: 40 mL/min/kg | F (Rattus norvegicus): 160% | AUC [5]: 9.7 µM·h | Cmax [6]: 1.9 µM | Papp A→B [1]: 20 ×10⁻⁶ cm/s | logD (physchem): 2.9

Cc1nc(NC(=O)Cc2nc(-c3ccccc3)c(C)o2)sc1-c1ccc(N)nc1
Papp A→B [1]: 26 ×10⁻⁶ cm/s | logD (physchem): 4

Cc1nc(NC(=O)[C@H](C)CC(F)(F)F)sc1-c1ccc(N)nc1
Cmax [7]: 55 µM | Cmax [8]: 1.8 µM | Papp A→B [1]: 44 ×10⁻⁶ cm/s | clearance [9]: 91 mL/min/kg | AUC [10]: 2.7 µM·h | AUC [11]: 44 µM·h | AUC [12]: 176 µM·h | Cmax [13]: 18 µM | logD (physchem): 3.2

Cc1nc(NC(=O)[C@@H](C)CC(F)(F)F)sc1-c1ccc(N)nc1
Cmax [7]: 26 µM | Cmax [8]: 2.2 µM | Papp A→B [1]: 42 ×10⁻⁶ cm/s | clearance [9]: 71 mL/min/kg | AUC [10]: 4 µM·h | AUC [11]: 38 µM·h | AUC [12]: 12 µM·h | Cmax [13]: 20 µM | logD (physchem): 3.2

Cc1nc(NC(=O)C(C)(C)CC(F)(F)F)sc1-c1ccc(N)nc1
Cmax [7]: 59 µM | Cmax [8]: 0.5 µM | Papp A→B [1]: 41 ×10⁻⁶ cm/s | clearance [9]: 58 mL/min/kg | AUC [10]: 208 µM·h | AUC [11]: 514 µM·h | Cmax [13]: 12 µM | logD (physchem): 3.4

COc1ccc(-c2c(C)nn3c(NCCN4CCOCC4)cc(C)nc23)cc1OC
Cmax [7]: 52 µM | Cmax [8]: 1.9 µM | half-life [2]: 2.8 h | clearance [3]: 18 mL/min/kg | bioavailability [4]: 91% | AUC [5]: 10 µM·h | Cmax [6]: 2 µM | Papp A→B [1]: 11 ×10⁻⁶ cm/s | AUC [10]: 3.6 µM·h | AUC [11]: 45 µM·h | AUC [12]: 307 µM·h | Cmax [13]: 15 µM | logD (physchem): 2.7
